Laboratory results from ChEMBL document CHEMBL5385923, “HPPO-Derived Meroterpenoids from the Marine-Derived Fungus Penicillium sp. SCSIO 41691” (J Nat Prod, 2024).
Each block holds one molecule with its values, some of them ahead of it.

Experiments:
RAW264.7 [1] = test: Antiinflammatory activity in LPS induced mouse RAW264.7 cells assessed as inhibition of NO production at 25 uM pretreated for 2 hrs followed by LPS stimulation and measured after 24 hrs by Griess reagent based assay relative to control; assay type: functional; details: time 26 hrs
NCI-H1975 = test: Cytotoxicity against human NCI-H1975 cells assessed as inhibition of cell growth incubated for 24 hrs by CCK-8 assay; assay type: functional, cell-based; details: NCI-H1975, 24 h
RAW264.7 [2] = test: Antiinflammatory activity in LPS induced mouse RAW264.7 cells assessed as inhibition of NO production pretreated for 2 hrs followed by LPS stimulation and measured after 24 hrs by Griess reagent based assay; assay type: functional, cell-based
[3] = Cytotoxicity against mouse RAW264.7 cells assessed as reduction in cell viability incubated for 2 hrs by MTT assay; assay type: toxicity, cell-based

SMILES: COc1ccc(-c2cc3c(c(=O)o2)C[C@H]2[C@@](C)(CC[C@@]45O[C@@](O)(OC4(C)C)[C@H](O)C[C@]25C)O3)cc1
- inhibition at 25 µM (RAW264.7 [1]): 0%
- IC50 (NCI-H1975): > 80 µM

- IC50 (RAW264.7 [2]): 21 µM
SMILES: COc1ccc(-c2cc3c(c(=O)o2)C[C@]2(O)[C@@]45CO[C@@H](CC4=O)C(C)(C)[C@]5(O)CC[C@@]2(C)O3)cc1OC
- inhibition at 25 µM (RAW264.7 [1]): 62%
- CC50 at 2 h [3]: > 50 µM
- IC50 (NCI-H1975): > 80 µM

SMILES: COc1ccc(-c2cc3c(c(=O)o2)C[C@]24O[C@]25[C@H](C)C[C@@H](O)C(C)(C)[C@]5(O)CC[C@@]4(C)O3)cc1
- inhibition at 25 µM (RAW264.7 [1]): 6.3%
- IC50 (NCI-H1975): > 80 µM

SMILES: COc1ccc(-c2cc3c(c(=O)o2)C[C@]2(O)[C@@]4(C)[C@H](O)C[C@@H](OC(C)=O)C(C)(C)[C@]4(O)CC[C@@]2(C)O3)cc1
- inhibition at 25 µM (RAW264.7 [1]): 2.5%
- IC50 (NCI-H1975): > 80 µM

SMILES: COc1cc(-c2cc3c(c(=O)o2)C[C@]2(O)[C@@]45CO[C@@H](CC4=O)C(C)(C)[C@]5(O)CC[C@@]2(C)O3)cc2c1OCO2
- inhibition at 25 µM (RAW264.7 [1]): 11%
- IC50 (NCI-H1975): 15 µM

SMILES: COc1cc(-c2cc3c(c(=O)o2)C[C@]2(O)[C@@]45CO[C@@H](CC4=O)C(C)(C)[C@]5(O)CC[C@@]2(C)O3)cc(OC)c1OC
- inhibition at 25 µM (RAW264.7 [1]): 22%
- IC50 (NCI-H1975): > 80 µM

SMILES: COc1ccc(-c2cc3c(c(=O)o2)C[C@H]2[C@@](C)(CC[C@@]4(O)C(C)(C)C(=O)C=C[C@]24C)O3)cc1
- inhibition at 25 µM (RAW264.7 [1]): 35%
- IC50 (NCI-H1975): > 80 µM

SMILES: COc1ccc(-c2cc3c(c(=O)o2)C[C@]2(O)[C@@]45O[C@]4(CC[C@@]2(C)O3)C(C)(C)[C@H](O)C[C@H]5C)cc1
- inhibition at 25 µM (RAW264.7 [1]): 32%
- IC50 (NCI-H1975): 67 µM

SMILES: COc1ccc(-c2cc3c(c(=O)o2)C[C@H]2[C@@](C)(CC[C@@]4(O)C(C)(C)OC(=O)[C@H](O)C[C@]24C)O3)cc1
- inhibition at 25 µM (RAW264.7 [1]): 7.6%
- IC50 (NCI-H1975): > 80 µM

- IC50 (RAW264.7 [2]): 24 µM
SMILES: COc1ccc2c(c1)c(CC(=O)O)c(C)n2C(=O)c1ccc(Cl)cc1 [INDOMETHACIN]
- inhibition at 25 µM (RAW264.7 [1]): 57%
- CC50 at 2 h [3]: > 50 µM
